These are literature values, as cited in patent US20050244367A1 (priority 2004, published 2005).

For this data set, the system named is PLA2. Particulars: art-known PLA2 inhibitor classes, order of magnitude given in words.
As for `O=C(O)CC[C@@H](CSc1ccc(Cc2ccccc2)cc1)NC(=O)CCCCCCc1ccccc1`, the IC50 entry is “sub μM range”. Regarding `CCN(CC)CCN(Cc1ccc(-c2ccc(C(F)(F)F)cc2)cc1)C(=O)Cn1cc(Cc2ccn(C)n2)c(=O)nc1SCc1ccc(F)cc1`, the IC50 entry was “nM or subnM range”. Take `CC(C)c1ccc2c(c1)CCC1C(C)(CNCCC(=O)c3ccc(F)cc3)CCCC21C` (stereo not shown): the IC50 result is “μM range”. `CCc1c(CC(N)=O)c2cc(OCCCP(=O)(O)O)ccc2n1Cc1ccccc1`: the IC50 entry is “sub μM range”. Regarding `CC(C)c1ccc2c(c1)CCC1C(C)(CNCCC(N)c3ccc(F)cc3)CCCC21C` (stereo not shown), the IC50 entry was “μM range”. `COC1=CCC2=C(CCC3C2CC[C@@]2(C)C3CC[C@@H]2N(C)CCCN(C)C)C1` (stereo partly shown): the IC50 entry is on record as “sub μM range”. `CCC(CCCCSc1ccc(C)cc1)c1ccc(F)cc1` (stereo not shown): the IC50 entry is given as “μM range”.
